Molecules are shown by their SMILES. Where two headings read alike, the source gives them in different places. Bounds are passed on as bounds.

Consider 15 compounds from patent publication US8648076B2, “Cysteine protease inhibitors and their therapeutic applications” (Hybrigenics SA, priority 2005, dated 2014).

One experiment has as its target T1, Caspase 3 (Homo sapiens, UniProt P42574).
T1 sequence (P42574 29-175 limits assumed): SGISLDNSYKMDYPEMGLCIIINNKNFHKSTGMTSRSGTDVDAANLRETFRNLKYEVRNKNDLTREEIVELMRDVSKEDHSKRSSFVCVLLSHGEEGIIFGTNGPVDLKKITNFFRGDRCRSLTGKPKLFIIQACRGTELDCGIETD
T1 sequence (P42574 176-277 limits assumed): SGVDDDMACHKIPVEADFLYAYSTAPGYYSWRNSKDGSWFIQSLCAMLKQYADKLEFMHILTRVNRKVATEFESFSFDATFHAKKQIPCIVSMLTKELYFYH
Put plainly: Caspase 3 activity assay. It counts as biochemical. Conditions: 500 nM Ac-DEVD-AMC, 3.2 nM enzyme, 30 min pre-incubation at 25° C., 60 min at 37° C.; sigmoidal fit; AF: Autofluorescent; read-out: Casp3 (inhibition of cysteine protease activity). As to the method: Compounds stocks (100 mM) were stored at −20° C. in DMSO. […] Reactions were performed as duplicates in Black LJL 96 well plates (HE microplates; Molecular Devices; 20 μl final reaction volume). The substrate concentration for caspase 3 specificity assay was 500 nM (Ac-DEVD-AMC; Promega). […] The concentrations were determined in order to perform specificity assays under initial velocities at fixed substrate concentration. Compounds were pre-incubated with enzymes for 30 minutes at 25° C. Reactions were initiated by addition of substrate to the plates containing the enzymes (+/−compounds) diluted in assay buffer. Reactions were incubated for 60 minutes at 37° C. Reactions were stopped by adding acetic acid (100 mM final). Readings were performed on a Pherastar Fluorescent Reader (BMG). δ Emission 380 nm; δ Excitation=460 nm. Data (mean values+/− standard deviation) were analyzed as % of control (no compound) and plotted as percentage versus the Log of the compound concentration using GraphPad (Prism). Data were fitted to a sigmoidal model (variable slope).

Experiment [1] concerns HCT116 colon cancer cells. The experiment is described as follows: HCT116 cell viability and proliferation assay (MTS). It counts as cell-based. Conditions: Homo sapiens, read-out: HCT116 D3 GI50.
The next experiment addresses T2, USP8 (Homo sapiens, UniProt P40818).
T2 sequence (P40818 1-1118): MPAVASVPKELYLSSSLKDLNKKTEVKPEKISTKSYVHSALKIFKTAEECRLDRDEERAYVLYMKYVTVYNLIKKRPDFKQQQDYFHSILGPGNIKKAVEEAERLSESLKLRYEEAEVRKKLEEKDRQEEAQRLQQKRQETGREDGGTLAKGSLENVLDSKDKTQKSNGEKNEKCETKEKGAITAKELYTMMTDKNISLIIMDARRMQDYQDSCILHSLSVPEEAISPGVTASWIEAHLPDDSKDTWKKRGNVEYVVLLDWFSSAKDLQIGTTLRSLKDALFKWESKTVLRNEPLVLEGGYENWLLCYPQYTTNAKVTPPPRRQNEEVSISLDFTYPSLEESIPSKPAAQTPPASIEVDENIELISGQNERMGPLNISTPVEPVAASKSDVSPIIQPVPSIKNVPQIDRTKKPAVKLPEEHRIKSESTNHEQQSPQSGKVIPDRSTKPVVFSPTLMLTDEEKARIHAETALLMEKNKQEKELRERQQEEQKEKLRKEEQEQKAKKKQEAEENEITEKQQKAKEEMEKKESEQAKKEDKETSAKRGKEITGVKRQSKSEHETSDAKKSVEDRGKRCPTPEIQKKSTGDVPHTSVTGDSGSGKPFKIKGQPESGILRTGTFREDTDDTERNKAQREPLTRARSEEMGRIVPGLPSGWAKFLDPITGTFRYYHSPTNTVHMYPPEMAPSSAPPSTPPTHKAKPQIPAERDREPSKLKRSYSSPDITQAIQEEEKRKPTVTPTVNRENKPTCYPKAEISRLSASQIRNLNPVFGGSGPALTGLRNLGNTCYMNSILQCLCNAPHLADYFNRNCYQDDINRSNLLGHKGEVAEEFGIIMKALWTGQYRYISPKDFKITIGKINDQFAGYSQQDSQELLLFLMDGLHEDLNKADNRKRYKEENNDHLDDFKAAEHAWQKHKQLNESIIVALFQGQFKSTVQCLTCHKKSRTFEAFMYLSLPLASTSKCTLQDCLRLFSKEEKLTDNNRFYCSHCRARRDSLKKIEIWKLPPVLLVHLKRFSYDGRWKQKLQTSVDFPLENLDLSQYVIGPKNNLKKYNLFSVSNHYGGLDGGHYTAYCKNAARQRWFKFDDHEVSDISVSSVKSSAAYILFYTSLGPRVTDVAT
The experiment is described as follows: USP8 activity assay. It counts as biochemical. Conditions: 400 nM Ub-AMC, pH8.8, 30 min pre-incubation at 25° C., 60 min at 37° C.; sigmoidal fit; AF: Autofluorescent; read-out: USP 8 (inhibition of cysteine protease activity).

The target in a further experiment is T3, Uch-L3 (Homo sapiens, UniProt P15374).
T3 sequence (P15374 1-230): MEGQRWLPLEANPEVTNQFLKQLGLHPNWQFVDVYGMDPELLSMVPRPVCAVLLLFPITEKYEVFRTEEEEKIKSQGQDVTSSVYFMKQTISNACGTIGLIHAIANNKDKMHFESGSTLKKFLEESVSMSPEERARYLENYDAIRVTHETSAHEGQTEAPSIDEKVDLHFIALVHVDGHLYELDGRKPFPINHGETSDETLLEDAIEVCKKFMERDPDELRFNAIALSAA
Put plainly: UCH-L3 activity assay. In kind it is biochemical. Conditions: 400 nM Ub-AMC, 13 pM enzyme, 30 min pre-incubation at 25° C., 60 min at 37° C.; sigmoidal fit; AF: Autofluorescent; read-out: Uch-L3 (inhibition of cysteine protease activity). Here is the method: Bovine Serum Albumin 0.05 mg·ml^−1 pH7.6). Compounds stocks (100 mM) were stored at −20° C. in DMSO. […] Reactions were performed as duplicates in Black LJL 96 well plates (HE microplates; Molecular Devices; 20 μl final reaction volume). The substrate concentration for Uch-L3 was 400 nM Ub-AMC (Boston Biochem). The concentration of the enzyme (Uch-L3) in specificity assays was 13 pM. The concentrations were determined in order to perform specificity assays under initial velocities at fixed substrate concentration. Compounds were pre-incubated with enzymes for 30 minutes at 25° C. Reactions were initiated by addition of substrate to the plates containing the enzymes (+/−compounds) diluted in assay buffer. Reactions were incubated for 60 minutes at 37° C. Reactions were stopped by adding acetic acid (100 mM final). Readings were performed on a Pherastar Fluorescent Reader (BMG). δ Emission 380 nm; δ Excitation=460 nm. Data (mean values+/− standard deviation) were analyzed as % of control (no compound) and plotted as percentage versus the Log of the compound concentration using GraphPad (Prism). Data were fitted to a sigmoidal model (variable slope).

Experiment [2] relates to PC-3 prostate cancer cells. The experiment is described as follows: PC3 cell viability and proliferation assay (MTS). Conditions: Homo sapiens, PC-3, 72 h, read-out: PC3 D3 GI50. It counts as cell-based.
The mark [3] stands for this setting: HCT-116, HCT116 cells, 72 hours incubation, MTS, mean of 3 independent experiments.
[4] abbreviates: PC3 cells, 72 hours incubation, MTS, mean of 3 independent experiments.

In the case of `CN(C)c1nc2c(nc1C#N)C(=O)c1ccccc1-2` [Example 4, 3-dimethylamino-9-oxo-9H-indeno[1,2-b]pyrazine-2-carbonitrile], the IC50 on Caspase 3, on USP8 and on Uch-L3 was greater than 100 µM throughout. The GI50 in experiment [1] (setting [3]) and in experiment [2] (setting [4]) was greater than 10 µM in each case.

In the case of `COCCOc1nc2c(nc1C#N)C(=O)c1ccccc1-2` [Example 5, 3-(2-methoxy-ethoxy)-9-oxo-9H-indeno[1,2-b]pyrazine-2-carbonitrile], the IC50 was greater than 100 µM at Caspase 3, 53 µM on USP8 and 24 µM at Uch-L3. Besides, the 50% growth inhibitory concentration (GI50) in experiment [1] (setting [3]) and in experiment [2] (setting [4]) was greater than 10 µM each time.

Take `N#Cc1nc2c(nc1O)-c1ccccc1C2=O` [Example 6, 3-hydroxy-9-oxo-9H-indeno[1,2-b]pyrazine-2-carbonitrile]: the IC50 at Caspase 3 is 9.3 µM; on USP8, 8.4 µM; on Uch-L3, 1.1 µM. Also, the GI50 in experiment [1] (setting [3]) and in experiment [2] (setting [4]) was greater than 10 µM in each case.

Take `N#Cc1nc2c(nc1N)-c1ccccc1C2=O` [Example 7, 3-amino-9-oxo-9H-indeno[1,2-b]pyrazine-2-carbonitrile]: the IC50 on Caspase 3 was greater than 100 µM; at USP8 it was 48 µM; on Uch-L3, 52 µM. In addition, the GI50 in experiment [1] (setting [3]) and in experiment [2] (setting [4]) was greater than 10 µM throughout.

As for `N#Cc1nc2c(nc1N1CCC(F)(F)CC1)-c1ccccc1C2=O` [Example 8, 3-(4,4-difluoro-piperidin-1-yl)-9-oxo-9H-indeno[1,2-b]-pyrazine-2-carbonitrile], the IC50 at Caspase 3, at USP8 and at Uch-L3 was greater than 100 µM each time. The GI50 in experiment [1] (setting [3]) and in experiment [2] (setting [4]) was greater than 10 µM each time.

As to `N#Cc1nc2c(nc1Cl)-c1ccccc1C2=O` [Example 9, 3-chloro-9-oxo-9H-indeno[1,2-b]pyrazine-2-carbonitrile], the IC50 on Caspase 3 was greater than 100 µM; at USP8, 16.2 µM; on Uch-L3, 8.8 µM. For the same compound, the GI50 in experiment [1] (setting [3]) and in experiment [2] (setting [4]) was greater than 10 µM throughout.

For the compound `N#Cc1nc2c(nc1C#N)C1(OCCO1)c1ccccc1-2` [Example 10], the IC50 at Caspase 3 was greater than 100 µM; on USP8, 13 µM; at Uch-L3 it was 20 µM. For the same compound, the GI50 (usually the concentration at which growth is held to half of that of the control) in experiment [1] (setting [3]) came out at 3.4 µM; in experiment [2] (setting [4]), 4.4 µM.

As for `N#Cc1nc2c(nc1C(N)=O)-c1ccccc1/C2=N\O` [Example 11, 2-cyano-9-[hydroxyimino]-9H-indeno[1,2-b]pyrazine-3-carboxylic acid amide], the IC50 at Caspase 3 turned out to be 2.3 µM; at USP8 it was 0.73 µM; at Uch-L3, 0.6 µM. For the same compound, the results for the 50% growth inhibitory concentration (GI50) in experiment [1] (setting [3]) and in experiment [2] (setting [4]) were 1.6 µM and 1.24 µM, respectively.

On to `N#Cc1nc2c(nc1C#N)-c1ccccc1C2=NO` [Example 12, 9-[hydroxyimino]-9H-indeno[1,2-b]pyrazine-2,3-dicarbonitrile], for which the figures for the IC50 on Caspase 3, on USP8 and at Uch-L3 were 5.6 µM, 7 µM and 1.3 µM, respectively. The GI50 in experiment [1] (setting [3]) came to 6.5 µM; in experiment [2] (setting [4]), 4.4 µM.

In the case of `CON=C1c2ccccc2-c2nc(C#N)c(C#N)nc21` [Example 13a, 9-(methoxyimino)-9H-indeno[1,2-b]pyrazine-2,3-dicarbonitrile], the IC50 worked out at 52 µM on Caspase 3, 0.98 µM on USP8 and 2.2 µM at Uch-L3. Besides, the GI50 in experiment [1] (HCT-116, 72 h) was 0.39 µM; in experiment [2] it was 0.43 µM.

Consider `N#Cc1nc2c(nc1C#N)-c1ccccc1/C2=N/Oc1ccccc1` [Example 13e, 9-Phenoxyimino-9H-indeno[1,2-b]pyrazine-2,3-dicarbonitrile], for which the IC50 on Caspase 3 is greater than 100 µM; on USP8, 0.24 µM; on Uch-L3 it was 0.54 µM. In addition, the GI50 in experiment [1] (setting [3]) is 0.54 µM; in experiment [2] (setting [4]), 0.53 µM.

With `Cc1cccc2c1Cc1nc(C#N)c(C#N)nc1-2` [Example 16c, 8-Methyl-9H-indeno[1,2-b]pyrazine-2,3-dicarbonitrile], the IC50 on Caspase 3, on USP8 and on Uch-L3 was greater than 100 µM throughout. The concentration for 50% growth inhibition (GI50) in experiment [1] (setting [3]) came to 1.47 µM; in experiment [2] (setting [4]) it was 3.37 µM.

For the compound `COc1ccc2c(c1)-c1nc(C#N)c(C#N)nc1C2=O` [Example 17a, 6-Methoxy-9-oxo-9H-indeno[1,2-b]pyrazine-2,3-dicarbonitrile], the IC50 on Caspase 3 was 10 µM; at USP8 it was 4 µM; on Uch-L3, 7 µM. The 50% growth inhibitory concentration (GI50) in experiment [1] (setting [3]) amounted to 0.61 µM; in experiment [2] (setting [4]) it was 1.4 µM.

As to `COc1cc2c(cc1OC)-c1nc(C#N)c(C#N)nc1C2=O` [Example 17b, 6,7-Dimethoxy-9-oxo-9H-indeno[1,2-b]pyrazine-2,3-dicarbonitrile], the IC50 stood at 51 µM on Caspase 3, 2.5 µM at USP8 and 5.4 µM on Uch-L3. In addition, the 50% growth inhibitory concentration (GI50) came out at 0.53 µM in experiment [1] (setting [3]) and 0.92 µM in experiment [2] (setting [4]).

Consider `Cc1cccc2c1C(=O)c1nc(C#N)c(C#N)nc1-2` [Example 17c, 8-Methyl-9-oxo-9H-indeno[1,2-b]pyrazine-2,3-dicarbonitrile], for which the IC50 amounted to 13 µM at Caspase 3, 3.1 µM on USP8 and 2 µM on Uch-L3. The GI50 in experiment [1] (setting [3]) is 0.39 µM; in experiment [2] (setting [4]) it was 0.93 µM.
